From US20250353891A1 (MEDIMMUNE LIMITED, priority 2022, published 2025) come the findings set out here.

The target of experiment [1] is human GLP-1 receptor (hGLP-1R) (Homo sapiens, UniProt P43220). Kind of experiment: cAMP production (HTRF) in CHO cells expressing hGLP-1R. It is filed as cell-based. On the set-up: expressed in transfected cells. The following applies: for EC50: Table 6, peptides modified at position 17, cAMP in CHO hGLP-1R cells, geometric mean, read-out: hGLP-1R EC50; for % Relative Potency Ratio: Table 6, % GLP-1R activity relative to GLP-1 / % GlucR activity relative to glucagon. The procedure, abridged:
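Read-out: HTRF cAMP (anti-cAMP cryptate donor, cAMP-d2 acceptor in conjugate/lysis buffer), converted to % Delta F and fitted by 4-parameter logistic for EC50. Cell densities were 1×10^5 cells/mL (hGLP-1R) or 2×10^5 cells/mL (hGCGR). Stimulation lasted 30 min at room temperature.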

For experiment [2], the target named is human glucagon receptor (hGCGR) (Homo sapiens, UniProt P47871). As to the kind of experiment: cAMP production (HTRF) in CHO cells expressing hGCGR. It is filed as cell-based. On the set-up: expressed in transfected cells. The following applies: Table 6, peptides modified at position 17; cAMP in CHO hGCGR cells; geometric mean; read-out: hGluc-R EC50. On the procedure: Cells were re-suspended in assay buffer at a batch-dependent optimized concentration (typically hGLP-1R cells at 1×10^5 cells/mL, hGCGR cells at 2×10^5 cells/mL).
human glucagon receptor (hGCGR), sequence (P47871 26-477): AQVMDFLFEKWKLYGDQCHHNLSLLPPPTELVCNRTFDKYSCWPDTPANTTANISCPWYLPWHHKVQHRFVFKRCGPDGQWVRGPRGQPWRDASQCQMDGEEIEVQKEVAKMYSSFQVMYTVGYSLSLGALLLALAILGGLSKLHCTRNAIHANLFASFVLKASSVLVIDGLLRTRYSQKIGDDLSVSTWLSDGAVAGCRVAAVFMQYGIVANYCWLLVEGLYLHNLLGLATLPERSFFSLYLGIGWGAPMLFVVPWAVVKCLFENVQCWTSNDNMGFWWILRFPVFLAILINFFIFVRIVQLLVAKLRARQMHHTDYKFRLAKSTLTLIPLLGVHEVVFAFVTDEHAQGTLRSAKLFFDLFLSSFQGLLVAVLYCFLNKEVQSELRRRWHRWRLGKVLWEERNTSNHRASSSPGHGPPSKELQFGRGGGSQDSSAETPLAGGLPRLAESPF
Cells were added to the assay plate using a multidrop dispenser and incubated at room temperature for 30 minutes before measuring the cAMP level using a cAMP dynamic 2 homogeneous time resolved Fluorescence (HTRF) kit (Cisbio Bioassays #62AM4PEJ) following the two-step protocol as per manufacturer's recommendations. In brief, anti-cAMP cryptate (donor fluorophore) and cAMP-d2 (acceptor fluorophore) were made up separately by diluting each 1 in 20 in conjugate and lysis buffer provided in the kit. Anti-CAMP cryptate was added to all wells of the assay plate, followed by cAMP-d2 added to all wells except non-specific binding (NSB) wells (to which conjugate and lysis buffer was added).
Data was transformed to % Delta F as described in the manufacturer's guidelines and analyzed by 4-parameter logistic fit to determine EC50 values.

Starred links: 1 amine or outer side, 2 acyl side, 3 side chain; linkers in the order of their positions; H or OH if unused. Non-standard residues stand in square brackets, D forms with d. Residues, ends and D or L forms follow the SMILES beside them. Groups on a side chain read outwards from the residue. *: point of attachment. C20 diacid = O=C(O)CCCCCCCCCCCCCCCCCCC(=O)*; C18 diacid = O=C(O)CCCCCCCCCCCCCCCCC(=O)*; γGlu = O=C(O)[C@H](CCC(=O)[*:2])N[*:1]; αMeF = C[C@](N)(Cc1ccccc1)C(=O)O; AEEA = NCCOCCOCC(=O)O; Aib = CC(C)(N)C(=O)O

human GLP-1 receptor (hGLP-1R), sequence (P43220 24-463): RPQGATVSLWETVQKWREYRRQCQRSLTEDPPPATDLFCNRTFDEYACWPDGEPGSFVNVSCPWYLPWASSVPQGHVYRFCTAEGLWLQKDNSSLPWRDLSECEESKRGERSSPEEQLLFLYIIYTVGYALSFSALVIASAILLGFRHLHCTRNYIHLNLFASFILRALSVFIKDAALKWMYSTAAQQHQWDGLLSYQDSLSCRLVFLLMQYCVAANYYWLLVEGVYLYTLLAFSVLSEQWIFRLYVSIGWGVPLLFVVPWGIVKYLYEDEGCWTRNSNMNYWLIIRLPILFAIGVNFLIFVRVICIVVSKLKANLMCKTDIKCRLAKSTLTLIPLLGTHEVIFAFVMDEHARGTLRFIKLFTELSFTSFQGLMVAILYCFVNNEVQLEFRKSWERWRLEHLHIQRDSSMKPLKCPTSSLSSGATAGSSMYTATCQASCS

`CC[C@H](C)[C@H](NC(=O)C(C)(C)NC(=O)[C@H](CCC(N)=O)NC(=O)[C@@H](NC(=O)[C@H](Cc1ccccc1)NC(=O)[C@H](CC(=O)O)NC(=O)[C@H](CCC(N)=O)NC(=O)[C@H](C)NC(=O)[C@H](C)NC(=O)[C@H](CCCCNC(=O)COCCOCCNC(=O)COCCOCCNC(=O)CC[C@H](NC(=O)CCCCCCCCCCCCCCCCC(=O)O)C(=O)O)NC(=O)[C@H](CO)NC(=O)[C@H](CC(=O)O)NC(=O)[C@H](CC(C)C)NC(=O)[C@](C)(Cc1ccccc1)NC(=O)[C@H](CCCCN)NC(=O)[C@H](CO)NC(=O)[C@@H](NC(=O)[C@H](CC(=O)O)NC(=O)[C@H](CO)NC(=O)[C@@H](NC(=O)[C@](C)(Cc1ccccc1)NC(=O)[C@H](CO)NC(=O)CNC(=O)[C@H](Cc1c[nH]cn1)NC(=O)C(C)(C)NC(=O)[C@@H](N)Cc1c[nH]cn1)[C@@H](C)O)C(C)C)C(C)C)C(=O)N[C@@H](C)C(=O)N[C@@H](CC(N)=O)C(=O)N[C@H](C(N)=O)[C@@H](C)O` [Peptide 11] (H-H[Aib]HGS[αMeF]TSDVSK[αMeF]LDSK([AEEA-AEEA-γGlu-C18 diacid])AAQDFVQ[Aib]IANT-NH2): in experiment [1], the EC50 was determined as 157 pM and the “% Relative Potency Ratio” value was found to be 1.5. In addition, in experiment [2], the EC50 was determined as 118 pM.

As to `CC[C@H](C)[C@H](NC(=O)C(C)(C)NC(=O)[C@H](CCC(N)=O)NC(=O)[C@@H](NC(=O)[C@H](Cc1ccccc1)NC(=O)[C@H](CC(=O)O)NC(=O)[C@H](CCCNC(=N)N)NC(=O)[C@H](C)NC(=O)[C@H](C)NC(=O)[C@H](CCCCNC(=O)COCCOCCNC(=O)COCCOCCNC(=O)CC[C@H](NC(=O)CCCCCCCCCCCCCCCCC(=O)O)C(=O)O)NC(=O)[C@H](CO)NC(=O)[C@H](CC(=O)O)NC(=O)[C@H](CC(C)C)NC(=O)[C@](C)(Cc1ccccc1)NC(=O)[C@H](CCCCN)NC(=O)[C@H](CO)NC(=O)[C@@H](NC(=O)[C@H](CC(=O)O)NC(=O)[C@H](CO)NC(=O)[C@@H](NC(=O)[C@](C)(Cc1ccccc1)NC(=O)[C@H](CO)NC(=O)CNC(=O)[C@H](Cc1c[nH]cn1)NC(=O)C(C)(C)NC(=O)[C@@H](N)Cc1c[nH]cn1)[C@@H](C)O)C(C)C)C(C)C)C(=O)N[C@@H](C)C(=O)N[C@@H](CC(N)=O)C(=O)N[C@H](C(N)=O)[C@@H](C)O` [Peptide 12] (H-H[Aib]HGS[αMeF]TSDVSK[αMeF]LDSK([AEEA-AEEA-γGlu-C18 diacid])AARDFVQ[Aib]IANT-NH2; N-terminus assumed), in experiment [1], the EC50 is 14.5 pM and the “% Relative Potency Ratio” value amounted to 6.5. Further, in experiment [2], the EC50 turned out to be 47.7 pM.

With `CC[C@H](C)[C@H](NC(=O)C(C)(C)NC(=O)[C@H](CCC(N)=O)NC(=O)[C@@H](NC(=O)[C@](C)(Cc1ccccc1)NC(=O)[C@H](CC(=O)O)NC(=O)[C@H](CCCNC(=N)N)NC(=O)[C@H](C)NC(=O)[C@H](C)NC(=O)[C@H](CCCCNC(=O)COCCOCCNC(=O)COCCOCCNC(=O)CC[C@H](NC(=O)CCCCCCCCCCCCCCCCC(=O)O)C(=O)O)NC(=O)[C@H](CO)NC(=O)[C@H](CC(=O)O)NC(=O)[C@H](CC(C)C)NC(=O)[C@](C)(Cc1ccccc1)NC(=O)[C@H](CCCCN)NC(=O)[C@H](CO)NC(=O)[C@@H](NC(=O)[C@H](CC(=O)O)NC(=O)[C@H](CO)NC(=O)[C@@H](NC(=O)[C@](C)(Cc1ccccc1)NC(=O)[C@H](CO)NC(=O)CNC(=O)[C@H](Cc1c[nH]cn1)NC(=O)C(C)(C)NC(=O)[C@@H](N)Cc1c[nH]cn1)[C@@H](C)O)C(C)C)C(C)C)C(=O)N[C@@H](C)C(=O)N[C@@H](CC(N)=O)C(=O)N[C@H](C(N)=O)[C@@H](C)O` [Peptide 13] (H-H[Aib]HGS[αMeF]TSDVSK[αMeF]LDSK([AEEA-AEEA-γGlu-C18 diacid])AARD[αMeF]VQ[Aib]IANT-NH2; N-terminus assumed), in experiment [1], the EC50 stood at 15.9 pM and the “% Relative Potency Ratio” value is listed as 5.5. Moreover, in experiment [2], the EC50 was 44 pM.

For the compound `CC[C@H](C)[C@H](NC(=O)C(C)(C)NC(=O)[C@H](CCC(N)=O)NC(=O)[C@@H](NC(=O)[C@](C)(Cc1ccccc1)NC(=O)[C@H](CC(=O)O)NC(=O)[C@H](CCCNC(=N)N)NC(=O)[C@H](C)NC(=O)[C@H](C)NC(=O)[C@H](CCCCNC(=O)COCCOCCNC(=O)COCCOCCNC(=O)CC[C@H](NC(=O)CC[C@H](NC(=O)CCCCCCCCCCCCCCCCCCC(=O)O)C(=O)O)C(=O)O)NC(=O)[C@H](CO)NC(=O)[C@H](CC(=O)O)NC(=O)[C@H](CC(C)C)NC(=O)[C@](C)(Cc1ccccc1)NC(=O)[C@H](CCCCN)NC(=O)[C@H](CO)NC(=O)[C@@H](NC(=O)[C@H](CC(=O)O)NC(=O)[C@H](CO)NC(=O)[C@@H](NC(=O)[C@](C)(Cc1ccccc1)NC(=O)[C@H](CO)NC(=O)CNC(=O)[C@H](Cc1c[nH]cn1)NC(=O)C(C)(C)NC(=O)[C@@H](N)Cc1c[nH]cn1)[C@@H](C)O)C(C)C)C(C)C)C(=O)N[C@@H](C)C(=O)N[C@@H](CC(N)=O)C(=O)N[C@H](C(N)=O)[C@@H](C)O` [Peptide 14] (H-H[Aib]HGS[αMeF]TSDVSK[αMeF]LDSK([AEEA-AEEA-γGlu-γGlu-C20 diacid])AARD[αMeF]VQ[Aib]IANT-NH2; N-terminus assumed), in experiment [1], the EC50 turned out to be 93.8 pM and the “% Relative Potency Ratio” value is on record as 9.7. The 50% effective concentration (EC50) in experiment [2] worked out at 462 pM.

As for `CC[C@H](C)[C@H](NC(=O)C(C)(C)NC(=O)[C@H](C)NC(=O)[C@@H](NC(=O)[C@](C)(Cc1ccccc1)NC(=O)[C@H](CC(=O)O)NC(=O)[C@H](CCCNC(=N)N)NC(=O)[C@H](C)NC(=O)[C@H](C)NC(=O)[C@H](CCCCNC(=O)COCCOCCNC(=O)COCCOCCNC(=O)CC[C@H](NC(=O)CCCCCCCCCCCCCCCCC(=O)O)C(=O)O)NC(=O)[C@H](CO)NC(=O)[C@H](CC(=O)O)NC(=O)[C@H](CC(C)C)NC(=O)[C@](C)(Cc1ccccc1)NC(=O)[C@H](CCCCN)NC(=O)[C@H](CO)NC(=O)[C@@H](NC(=O)[C@H](CC(=O)O)NC(=O)[C@H](CO)NC(=O)[C@@H](NC(=O)[C@](C)(Cc1ccccc1)NC(=O)[C@H](CO)NC(=O)CNC(=O)[C@H](Cc1c[nH]cn1)NC(=O)C(C)(C)NC(=O)[C@@H](N)Cc1c[nH]cn1)[C@@H](C)O)C(C)C)[C@@H](C)CC)C(=O)N[C@@H](C)C(=O)N[C@@H](CC(N)=O)C(=O)N[C@H](C(N)=O)[C@@H](C)O` [Peptide 16] (H-H[Aib]HGS[αMeF]TSDVSK[αMeF]LDSK([AEEA-AEEA-γGlu-C18 diacid])AARD[αMeF]IA[Aib]IANT-NH2; N-terminus assumed), in experiment [1], the EC50 amounted to 33 pM and the “% Relative Potency Ratio” value was 6.3. Moreover, in experiment [2], the EC50 was determined as 105 pM.

On to `CC[C@H](C)[C@H](NC(=O)[C@H](CO)NC(=O)[C@H](CCC(=O)O)NC(=O)[C@@H](NC(=O)[C@](C)(Cc1ccccc1)NC(=O)[C@H](CC(=O)O)NC(=O)[C@H](CCCNC(=N)N)NC(=O)[C@H](C)NC(=O)[C@H](C)NC(=O)[C@H](CCCCNC(=O)COCCOCCNC(=O)COCCOCCNC(=O)CC[C@H](NC(=O)CCCCCCCCCCCCCCCCC(=O)O)C(=O)O)NC(=O)[C@H](CO)NC(=O)[C@H](CC(=O)O)NC(=O)[C@H](CC(C)C)NC(=O)[C@](C)(Cc1ccccc1)NC(=O)[C@H](CCCCN)NC(=O)[C@H](CO)NC(=O)[C@@H](NC(=O)[C@H](CC(=O)O)NC(=O)[C@H](CO)NC(=O)[C@@H](NC(=O)[C@](C)(Cc1ccccc1)NC(=O)[C@H](CO)NC(=O)CNC(=O)[C@H](Cc1c[nH]cn1)NC(=O)C(C)(C)NC(=O)[C@@H](N)Cc1c[nH]cn1)[C@@H](C)O)C(C)C)C(C)C)C(=O)N[C@@H](C)C(=O)N[C@@H](CC(N)=O)C(=O)N[C@H](C(N)=O)[C@@H](C)O` [Peptide 17] (H-H[Aib]HGS[αMeF]TSDVSK[αMeF]LDSK([AEEA-AEEA-γGlu-C18 diacid])AARD[αMeF]VESIANT-NH2; N-terminus assumed), for which, in experiment [1], the EC50 was 45 pM and the “% Relative Potency Ratio” value was found to be 5.9. Besides, in experiment [2], the EC50 is 135 pM.
